What was measured:
[1] = Reversed Passive Arthus Reaction (RPAR) paw technique, anti-inflammatory test; format: in vivo, Male Lewis inbred albino rats; details: Oral Dose 25 mg/kg by gavage in methyl cellulose, rat paw volume 2 hours post-challenge
Procedure: The compounds of this invention are also effective for the treatment of inflammation; thus they are useful for the treatment of arthritis, bursitis, tendonitis, gout and other inflammatory conditions. […] The potency of the compounds described and claimed herein for treatment of inflammatory conditions is determined using indomethacin as the standard.
Male Lewis inbred albino rats weighing 180-220 grams obtained from Charles River Breeding Laboratories are used in these experiments. The rats are housed 3 animals/cage and food and water are allowed ad libitum. The animals are numbered 1-3 in each cage and color marked for identification purposes.
All reagents and drugs are prepared just prior to the study. Crystallized and lyophilized bovine serum albumin (BSA), obtained from Sigma Chemical Company, is solubilized without shaking in cold sterile pyrogen free saline (10 mg/ml). […]
Groups of animals (6/group) are dosed with drug in MC by gavage one hour prior to sensitization with BSA. […] The volume of mercury displaced is converted to weight and recorded. […] Paw volumes are also recorded with a plethysmograph during the development of the inflammation at 2 and 4 hours post-challenge, and the results are shown in Table B below.

[2] = tested on: release of SRS-A from sensitized guinea pig lung fragments; assay: Measurement of SRS-A release from sensitized guinea pig lung fragments after antigen (ovalbumin) challenge; format: cell-based; details: Dose (Molar Conc.) 1 x 10^-5; lung fragments incubated with compound 12 min at 37°C, challenge with 20µg ovalbumin/ml
Procedure: The anti-allergy property of the compounds of this invention is evaluated by measuring the inhibition of the release of the mediator SRS-A (slow reacting substance of anaphylaxis) from sensitized guinea pig lung fragments after antigen challenge.
The release of SRS-A and histamine was studied in lungs from actively sensitized guinea pigs. Male Hartley guinea pigs (250-300 g, obtained from Charles River or Dutchland Farms) were sensitized with 5 mg ovalbumin injected intraperitoneally and 5 mg subcutaneously in 1 ml saline on day one, and 5 mg ovalbumin injected intraperitoneally on day four. The sensitized animals were used 3-4 weeks later.
Sensitized guinea pigs were killed by a blow to the head and the lungs removed and cleaned of visable connective tissue, trachea and large blood vessels. The lungs from individual animals were sliced into fragments approximately 1 mm in thickness using a McIlwain chopper and then washed with oxygenated Tyrode's buffer. Weighed aliquots (approximately 400 mg wet weight) of lung were transferred into vials containing 2 ml of fresh Tyrode's solution and incubated in the presence or absence of test compound for 12 min at 37°C followed by challenge of the tissue with 20µg ovalbumin/ml (final concentration). After an additional 15 min incubation, the vials were cooled to 4°C and 1.5 ml of clear supernatant media was removed and mixed with 6 ml of cold 100% ethanol. This mixture was thoroughly vortexed and kept at -15°C for 30 min to allow precipitation of protein. The samples were then centrifuged at 1000 x g for 15 min at 2°C and the clear supernatant fluid removed into polyethylene tubes and taken to dryness at 50°C under a stream of N₂ gas. The samples were stored at -70°C until assayed for SRS-A by bioassay or radioimmune assay.

SMILES	% Inhibition 2 hrs. [1] [%]	% Inhibition (INHIBITION OF SRS-A RELEASE FROM GUINEA PIG LUNG) [2] [%]
CCCCc1c(O)c2cccnc2n(-c2cccnc2)c1=O	64	33
O=C1CCN(c2ccccc2)N1 [1-phenyl-3-pyrazolidinone, reference compound]	–	41
CCCCc1c(O)c2cccnc2n(-c2ccc3c(c2)CCC3)c1=O [3-(n-BUTYL)-4-HYDROXY-1-(5-INDANYL)-1,8-NAPHTHYRIDIN-2(1H)-ONE]	23	55
